Assay results as given in publication PMC10545747, “Development of cyclopeptide inhibitors of cGAS targeting protein-DNA interaction and phase separation” (Nature Communications, 2023).
Where “and” joins values, the source holds several entries; their conditions need not be identical. Equal entries are not always repeated. Square brackets hold non-standard residues; d marks the D form. Peptide text beside a SMILES is read from it.

Legend:
HSV-1-infected WT mice = assay: HSV-1 infection of WT mice (serum ELISA, brain qPCR, IHC); assay type: in vivo, mouse; set-up: brain HSV-1 mRNA, qPCR, Fig. 6d / brain HSV-1(UL5) mRNA, qPCR, Fig. 6d: unit not given here
Experimental: Fig. 6 XQ2B attenuates the host innate antiviral response in vivo. a Chemical structure of XQ2 and XQ2B. b, c WT mice (n = 7) were injected intravenously with DMSO or XQ2B (10 mg/kg) for 3 h, and then administrated intravenously with HSV-1 at 1 × 10^7 pfu per mouse for 6 h. Serum from mice was collected for ELISA analysis of the levels of IFN-β (b) and CXCL10 (c). p = 0.0013 (b); p = 0.0175 (c). d Brains from mice (n = 6) in (b, c) were collected for qPCR analysis of the induction of HSV-1 and HSV-1(UL5) mRNA. p = 0.0287 (HSV-1); p = 0.0136 (HSV1-UL5). e Brains from mice in (b, c) were collected for immunohistochemistry (IHC) analysis with an anti-HSV-1 antibody. Tissue sections were visualized using microscopy. Scale bar, 25 μm. Data are representative of two independent experiments in (b–e). […] Source data are provided as a Source Data file.
(§1) The indicated cells were stimulated with either ISD (Sangon Biotech), HSV-1 (Provided by Dr. Zhengfan Jiang), HSV60mer (Sangon Biotech), SATE-cddA[70], 2’3’-cGAMP (Invivogen, Cat# tlrl-nacga23-1), ADU-S100 (MedChemExpress, Cat# HY-12885A) or Poly(I:C) (Invivogen, Cat# tlrl-pic) after XQ2 or XQ2B treatment. Total RNA was isolated from indicated cells that incubated with the drugs for indicated time or mice tissues by using NucleoZOL reagent (MACHEREY-NAGEL) according to the manufacturer’s instructions. The quantifications of mRNA levels were carried out by real-time PCR using a PerfectStart® Uni RT&qPCR Kit (TransGen Biotech) on the QuantStudio 5 qPCR machine (Applied Biosystems). Samples were carried out in triplicate and the target CT values were normalized to GAPDH CT values. Primers of qPCR used in this study can be found in Supplementary Table S2.
THP1 cells were seeded into 96-well plates, and cell culture supernatants were collected and analyzed by ELISA kits for human IFNβ levels (R&D Systems, Cat# DY814-05) and human CXCL10 levels (R&D Systems, Cat# DY266-05) according to the manufacturer’s instructions. Mice serum was collected and analyzed by ELISA kits for mouse IFNβ levels (R&D Systems, Cat# DY8234-05) and mouse CXCL10 levels (R&D Systems, Cat# DY466-05) according to the manufacturer’s protocols.
Tissues were resected and fixed successively in 4% paraformaldehyde, and embedded in paraffin according to the standard procedure, and then sectioned into 10-μm slices and placed on positively charged microscope slides. Sections of the brain were subjected to immunohistochemical (IHC) staining with an anti-HSV-1 antibody (Abcam, 1:100) and HRP-conjugated anti-rabbit IgG antibody (Cell Signaling, Cat# 7074, 1:200) according to standard procedures. Sections of the heart, stomach, tongue, kidney and muscle were stained with hematoxylin and eosin. Tissue sections were visualized using an Olympus IX73 microscope (20× Objective).

[1] = system: THP1 cells stimulated with SATE-cddA, 2’3’-cGAMP or ADU-S100 (STING agonists); assay: qPCR of IFNB1 mRNA in THP1 cells stimulated by STING agonists; assay type: cell-based, human; set-up: key to IFNB1 mRNA level (Fig. S7c): relative mRNA level, target CT normalized to GAPDH CT
Experimental: as §1
IFNB1 mRNA relative level […]
Supplementary Fig. 7. XQ2B inhibits the activity of cGAS in vitro. […]
(e) THP1 cells were pretreated
Data are representative of
Source data are provided as a Source Data file.

human cGAS (hcGAS) = human cGAS (hcGAS) (Homo sapiens, UniProt Q8N884); assay: biochemical; details: MST
Experimental: The binding ability of XQ2 with Cy5-ISD and XQ2 with human cGAS were tested using NanoTemper Monolith NT.115 instrument (20% LED, 40% MST power) at 25 °C. Serial dilutions of XQ2 were mixed with 10 nM of Cy5-ISD or 100 nM of fluorescent labeled hcGAS, incubated for 10 min at room temperature in HEPES buffer (50 mM HEPES, pH 7.5, 200 mM NaCl, 20 mM MgCl2, 0.05% Tween 20) with or without 1 mM ATP and 0.5 mM GTP or 2 M (NH4)2SO4 (Sigma-Aldrich). Excitation was optimized by varying the power to obtain fluorescence intensities above 200 counts. Data were analyzed by using the MO.Affinity Analysis software.

THP1 cells = assay: Immunoblotting of phosphorylated IRF3/TBK1 and nuclear IRF3; assay type: cell-based, human
Experimental: Total cell lysates were prepared in RIPA lysis buffer (Beyotime Biotechnology) supplemented with 1 mM PMSF and 1× protease inhibitor cocktail (Yeasen), and nuclear protein was extracted by nuclear protein extraction kit (Solarbio) in accordance with the manufacturer’s instructions. The samples were separated by SDS-PAGE and transferred to the PVDF membrane (Millipore). The membranes were incubated with the indicated primary antibodies at 4 °C overnight and then incubated with an HRP-conjugated anti-rabbit IgG antibody (Cell Signaling, Cat# 7074, 1:5000) or anti-mouse IgG antibody (Cell Signaling, Cat# 7076, 1:5000) at room temperature for 1 h. The signal was visualized by using the NcmECL Ultra kit (New Cell & Molecular Biotech) and then was exposed by using MiniChemi (SageCreation).

Hela cells = assay: Immunofluorescence of IRF3 and p-IRF3 after HSV-1; assay type: cell-based, human
Experimental: Hela cells were treated as described for the indicated time and then fixed with 4% paraformaldehyde for 25 min, permeabilized with 0.25% Triton X-100 for 10 min, and blocked in 1% BSA for 1 h at 37 °C. Then, cells were incubated with indicated primary antibodies overnight at 4 °C, and followed by incubating with donkey anti-rabbit IgG Alexa Fluor 488-labeled secondary antibodies (Abcam, Cat# ab150073, 1:200) for 1 h at 37 °C. The nuclei were counterstained with DAPI (Sigma-Aldrich) before the images were acquired using a Nikon A1R+ confocal microscope.

[2] = XQ2B 10 mg/kg i.v., individual mice

Chain of human cGAS (hcGAS) (Q8N884 whole entry): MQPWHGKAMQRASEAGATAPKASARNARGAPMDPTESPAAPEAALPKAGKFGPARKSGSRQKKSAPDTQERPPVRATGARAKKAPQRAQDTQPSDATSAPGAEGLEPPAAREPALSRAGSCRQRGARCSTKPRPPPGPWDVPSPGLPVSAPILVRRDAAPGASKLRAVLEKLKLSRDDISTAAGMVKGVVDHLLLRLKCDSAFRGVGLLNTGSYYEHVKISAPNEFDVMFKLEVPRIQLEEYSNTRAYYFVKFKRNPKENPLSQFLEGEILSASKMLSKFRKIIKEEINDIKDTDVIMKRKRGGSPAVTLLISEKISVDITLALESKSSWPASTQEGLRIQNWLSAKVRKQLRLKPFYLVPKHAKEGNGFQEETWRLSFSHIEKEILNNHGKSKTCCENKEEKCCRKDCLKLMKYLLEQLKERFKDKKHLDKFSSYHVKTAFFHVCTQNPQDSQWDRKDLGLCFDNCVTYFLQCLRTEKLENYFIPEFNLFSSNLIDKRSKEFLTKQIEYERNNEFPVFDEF

SMILES | production of IFN-β and CXCL10 upon HSV-1 infection in mice (HSV-1-infected WT mice; 10 mg/kg intravenous) | virus infection in brain tissues of mice (HSV-1-infected WT mice; 10 mg/kg intravenous) | serum IFN-β, ELISA, Fig. 6b (HSV-1-infected WT mice; XQ2B 10 mg/kg i.v. 3 h before HSV-1 1 × 10^7 pfu i.v., 6 h, individual mice) | serum CXCL10, ELISA, Fig. 6c (HSV-1-infected WT mice; XQ2B 10 mg/kg i.v., HSV-1 6 h, individual mice) | brain HSV-1(UL5) mRNA, qPCR, Fig. 6d (HSV-1-infected WT mice; [2]) | brain HSV-1 mRNA, qPCR, Fig. 6d (HSV-1-infected WT mice; [2]) | IFNB1 mRNA level (Fig. S7c) ([1]; 2'3'-cGAMP, XQ2B) | IFNB1 mRNA level (Fig. S7c) ([1]; SATE-cddA, XQ2B) | signaling induced by STING agonists ([1]; THP1, 10 μM) | IFNB1 mRNA level (Fig. S7c) ([1]; c-di-AM(PS)2, XQ2B) | Kd (human cGAS (hcGAS); absence of ATP/GTP and (NH4)2SO4 (Mock)) | Kd (human cGAS (hcGAS); in the presence of (NH4)2SO4 (2M)) | Kd (human cGAS (hcGAS); in the presence of ATP (1mM) and GTP (0.5mM)) | nuclear translocation of IRF-3, fractionation immunoblot (THP1 cells; ISD or HSV-1, 10 μM) | phosphorylation of TBK-1 and IRF-3 (THP1 cells; ISD/dsDNA 6 h) | quantification of cells with nuclear IRF3, Fig. 2f (Hela cells; HSV-1 6 h, 10 μM) | quantification of cells with p-IRF3, Fig. 2g (Hela cells; HSV-1 6 h, 10 μM) | nuclear translocation and phosphorylation of IRF-3, immunofluorescence (Hela cells; HSV-1, 10 μM)
CC(C)C[C@@H]1NC(=O)[C@H](CCCNC(=N)N)NC(=O)[C@H](C(C)C)NC(=O)[C@@H]2CCCN2C(=O)[C@@H](Cc2ccccc2)NC(=O)[C@H](CC(C)C)NC(=O)[C@H](CCCNC(=N)N)NC(=O)[C@H]([C@@H](C)O)NC(=O)[C@H](C)NC(=O)[C@@H](Cc2ccccc2)NC1=O [XQ2B] (cyclo([dF]ATRL[dF]PVRL)) | significantly impaired the production of IFN-β and CXCL10 upon HSV-1 infection in mice | promoted virus infection in the brain tissues of mice | 234.609 and 247.685 and 151.05 and 229.558 and 128.472 and 521.967 and 514.758 | 2266.42 and 1272.19 and 1516.42 and 1969.73 and 1635.92 and 1666.83 and 2034.41 | 2.362 and 11.4426 and 5.671 and 29.1839 and 18.1733 and 12.9008 | 4.055 and 17.5547 and 15.5667 and 41.0988 and 9.75 and 4.86 | 4003.21 and 3809.06 and 3708.08 | 747.639 and 650.174 and 712.905 | no significant effect on signaling induced by STING agonists | 9.033 and 9.206 and 10.1658 |  |  |  |  |  |  |  | 
CC(C)C[C@@H]1NC(=O)[C@H](CCCNC(=N)N)NC(=O)[C@H](C(C)C)NC(=O)[C@@H]2CCCN2C(=O)[C@@H](Cc2ccccc2)NC(=O)[C@H](CC(C)C)NC(=O)[C@H](CCCNC(=N)N)NC(=O)[C@H](C(C)C)NC(=O)[C@H](C)NC(=O)[C@@H](Cc2ccccc2)NC1=O [XQ2, Cyclo (LfAVRLfPVR)] (cyclo(L[dF]AVRL[dF]PVR)) |  |  |  |  |  |  |  |  |  |  | 45.3 ± 26.9 µM | 1.8 ± 0.6 µM | 4.5 ± 1.6 µM | substantially suppressed the nuclear translocation of IRF-3 induced by ISD and HSV-1 | markedly decreased phosphorylation of TBK-1 and IRF-3 induced by ISD | 5.1642 and 6.6102 and 7.0558 | 0.5674 and 0.8706 and 1.039 | significantly inhibited the nuclear translocation and phosphorylation of IRF-3 triggered by HSV-1
